Assay results reported in patent US20240383886A1, “Protein Tyrosine Phosphatase Degraders and Methods of Use Thereof” (CALICO LIFE SCIENCES LLC, priority 2019, published 2024).

Legend:
PTPN2 [1] = test: HiBiT-Degradation B16F10.4 PTPN2; type: cell-based; conditions: B16F10.4 cells, 24.0 hours
PTPN2 [2] = target: T1, PTPN2 (Homo sapiens, UniProt P17706); test: HiBiT-Degradation 293T.109 PTPN2 (Nano-Glo HiBiT Lytic Assay); type: cell-based; conditions: 293T.109 (HiBiT-PTPN2) cells, 24.0 hours
T1 construct: expressed in transfected cells; host or cells: 293T (293T.109 HiBiT-PTPN2 line; parental 293T WT from ATCC)
T1 sequence (P17706 1-415): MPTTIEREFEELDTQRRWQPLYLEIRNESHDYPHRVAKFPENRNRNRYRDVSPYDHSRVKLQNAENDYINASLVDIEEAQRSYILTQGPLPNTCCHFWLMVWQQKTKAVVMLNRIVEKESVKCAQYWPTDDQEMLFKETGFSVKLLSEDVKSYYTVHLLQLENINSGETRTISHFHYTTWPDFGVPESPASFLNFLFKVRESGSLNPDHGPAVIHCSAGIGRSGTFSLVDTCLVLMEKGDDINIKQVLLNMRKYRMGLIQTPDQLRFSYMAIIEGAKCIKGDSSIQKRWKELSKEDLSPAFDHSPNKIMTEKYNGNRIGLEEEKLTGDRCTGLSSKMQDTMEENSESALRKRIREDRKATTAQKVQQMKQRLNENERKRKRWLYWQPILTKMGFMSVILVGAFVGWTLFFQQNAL
Text: Dulbecco's modified Eagle medium (DMEM) without phenol red and fetal bovine serum (FBS) were purchased from Gibco (Grand Island, NY, USA). Nano-Glo® HiBIT Lytic Assay System was purchased from Promega (Madison, WI, USA). 293T.109 (HiBiT-PTPN2) cell line was generated by ectopically expressing PTPN2 with N-terminal HiBiT fusion tag in 293T WT cell line purchased from ATCC (Manassas, VA, USA). Cell culture flasks and 384-well microplates were acquired from VWR (Radnor, PA, USA).
PTPN2 degradation was determined based on quantification of luminescent signal using Nano-Glo® HiBIT Lytic Assay kit. Test compounds were added to the 384-well plate from a top concentration of 10 μM with 11 points, half log titration in duplicates. 293T.109 cells were added into 384-well plates at a cell density of 5000 cells per well. The plates were kept at 37° C. with 5% CO2 for 24 hours. The cells treated in the absence of the test compound were the negative control and the cells without Nano-Glo® HiBiT Lytic reagent were the positive control. After 24-hour incubation, Nano-Glo® HiBIT Lytic Assay reagents were added to the cells. Luminescence was acquired on EnVision™ Multilabel Reader (PerkinElmer, Santa Clara, CA, USA).

| Compound | DC50 (PTPN2 [1]) [nM] | DC50 (PTPN2 [2]) [nM] |
| --- | --- | --- |
| O=C1CCC(N2C(=O)c3cccc(NCC(=O)N4CCC(C(=O)NCCOc5ccc6cc(O)c(N7CC(=O)NS7(=O)=O)c(F)c6c5)CC4)c3C2=O)C(=O)N1 (centres unmarked) [Example 1, N-(2-((7-(1,1-dioxido-4-oxo-1,2,5-thiadiazolidin-2-yl)-8-fluoro-6-hydroxynaphthalen-2-yl)oxy)ethyl)-1-((2-(2,6-dioxopiperidin-3-yl)-1,3-dioxoisoindolin-4-yl)glycyl)piperidine-4-carboxamide] | ≥ 1000 | 200 to 1000 |
| O=C1CCC(N2Cc3c(NCC(=O)N4CCC(C(=O)NCCOc5ccc6cc(O)c(N7CC(=O)NS7(=O)=O)c(F)c6c5)CC4)cccc3C2=O)C(=O)N1 (centres unmarked) [Example 2, N-(2-((7-(1,1-dioxido-4-oxo-1,2,5-thiadiazolidin-2-yl)-8-fluoro-6-hydroxynaphthalen-2-yl)oxy)ethyl)-1-((2-(2,6-dioxopiperidin-3-yl)-1-oxoisoindolin-4-yl)glycyl)piperidine-4-carboxamide] | 200 to 1000 | 200 to 1000 |
| O=C1CCC(N2Cc3c(OCC(=O)N4CCC(C(=O)NCCOc5ccc6cc(O)c(N7CC(=O)NS7(=O)=O)c(F)c6c5)CC4)cccc3C2=O)C(=O)N1 (centres unmarked) [Example 3, 1-[2-[2-(2,6-dioxo-3-piperidyl)-1-oxo-isoindolin-4-yl]oxyacetyl]-N-[2-[[8-fluoro-6-hydroxy-7-(1,1,4-trioxo-1,2,5-thiadiazolidin-2-yl)-2-naphthyl]oxy]ethyl]piperidine-4-carboxamide] | 200 to 1000 | 50 to 200 |
| Cn1c(=O)n(C2CCC(=O)NC2=O)c2ccc(C3CCN(CC(=O)NCCOc4ccc5cc(O)c(N6CC(=O)NS6(=O)=O)c(F)c5c4)CC3)cc21 (centres unmarked) [Example 4, N-(2-((7-(1,1-dioxido-4-oxo-1,2,5-thiadiazolidin-2-yl)-8-fluoro-6-hydroxynaphthalen-2-yl)oxy)ethyl)-2-(4-(1-(2,6-dioxopiperidin-3-yl)-3-methyl-2-oxo-2,3-dihydro-1H-benzo[d]imidazol-5-yl)piperidin-1-yl)acetamide] | ≥ 1000 | 50 to 200 |
| O=C(CN1CCC(c2ccc3c(c2)oc(=O)n3C2CCC(=O)NC2=O)CC1)NCCOc1ccc2cc(O)c(N3CC(=O)NS3(=O)=O)c(F)c2c1 (centres unmarked) [Example 5, 2-[4-[3-(2,6-dioxo-3-piperidyl)-2-oxo-1,3-benzoxazol-6-yl]-1-piperidyl]-N-[2-[[8-fluoro-6-hydroxy-7-(1,1,4-trioxo-1,2,5-thiadiazolidin-2-yl)-2-naphthyl]oxy]ethyl]acetamide] | ≥ 1000 | 50 to 200 |
| Cn1c(=O)n(C2CCC(=O)NC2=O)c2ccc(C3CCN(CCC(=O)NCCOc4ccc5cc(O)c(N6CC(=O)NS6(=O)=O)c(F)c5c4)CC3)cc21 (centres unmarked) [Example 6, N-(2-((7-(1,1-dioxido-4-oxo-1,2,5-thiadiazolidin-2-yl)-8-fluoro-6-hydroxynaphthalen-2-yl)oxy)ethyl)-3-(4-(1-(2,6-dioxopiperidin-3-yl)-3-methyl-2-oxo-2,3-dihydro-1H-benzo[d]imidazol-5-yl)piperidin-1-yl)propanamide] | ≥ 1000 | 50 to 200 |
| O=C(CN1CCC(c2ccc3c4c(cccc24)C(=O)N3C2CCC(=O)NC2=O)CC1)NCCOc1ccc2cc(O)c(N3CC(=O)NS3(=O)=O)c(F)c2c1 (centres unmarked) [Example 7, N-(2-((7-(1,1-dioxido-4-oxo-1,2,5-thiadiazolidin-2-yl)-8-fluoro-6-hydroxynaphthalen-2-yl)oxy)ethyl)-2-(4-(1-(2,6-dioxopiperidin-3-yl)-2-oxo-1,2-dihydrobenzo[cd]indol-6-yl)piperidin-1-yl)acetamide] | 10 to 50 | 10 to 50 |
| Cn1nc(C2CCC(=O)NC2=O)c2ccc(C3CCN(CC(=O)NCCOc4ccc5cc(O)c(N6CC(=O)NS6(=O)=O)c(F)c5c4)CC3)cc21 (centres unmarked) [Example 8, 2-[4-[3-(2,6-dioxo-3-piperidyl)-1-methyl-indazol-6-yl]-1-piperidyl]-N-[2-[[8-fluoro-6-hydroxy-7-(1,1,4-trioxo-1,2,5-thiadiazolidin-2-yl)-2-naphthyl]oxy]ethyl]acetamide] | 50 to 200 | 10 to 50 |

Other lines, results leading:

| DC50 (PTPN2 [1]) [nM] | DC50 (PTPN2 [2]) [nM] | Compound |
| --- | --- | --- |
| 50 to 200 | 50 to 200 | Cn1c(=O)n(C2CCC(=O)NC2=O)c2ccc([C@H]3CC[C@@H](CNC(=O)c4ccc5c(F)c(N6CC(=O)NS6(=O)=O)c(O)cc5c4)CC3)cc21 (single isomer, unassigned) [Example 75] |
| 50 to 200 | 10 to 50 | Cn1c(=O)n(C2CCC(=O)NC2=O)c2ccc([C@H]3CC[C@H](CNC(=O)c4ccc5c(F)c(N6CC(=O)NS6(=O)=O)c(O)cc5c4)CC3)cc21 (single isomer, unassigned) [Example 76] |
| 10 to 50 | 10 to 50 | Cn1c(=O)n(C2CCC(=O)NC2=O)c2ccc([C@H]3CC[C@@H](CC(=O)Nc4ccc5c(F)c(N6CC(=O)NS6(=O)=O)c(O)cc5c4)CC3)cc21 (single isomer, unassigned) [Example 81a, N-(6-(1,1-dioxido-4-oxo-1,2,5-thiadiazolidin-2-yl)-5-fluoro-7-hydroxynaphthalen-2-yl)-2-((1s,4s)-4-(1-(2,6-dioxopiperidin-3-yl)-3-methyl-2-oxo-2,3-dihydro-1H-benzo[d]imidazol-5-yl)cyclohexyl)acetamide] |
| 200 to 1000 | 10 to 50 | Cn1c(=O)n(C2CCC(=O)NC2=O)c2ccc([C@H]3CC[C@H](CC(=O)Nc4ccc5c(F)c(N6CC(=O)NS6(=O)=O)c(O)cc5c4)CC3)cc21 (single isomer, unassigned) [Example 81b, N-(6-(1,1-dioxido-4-oxo-1,2,5-thiadiazolidin-2-yl)-5-fluoro-7-hydroxynaphthalen-2-yl)-2-((1r,4r)-4-(1-(2,6-dioxopiperidin-3-yl)-3-methyl-2-oxo-2,3-dihydro-1H-benzo[d]imidazol-5-yl)cyclohexyl)acetamide] |
| 200 to 1000 | 10 to 50 | Cn1nc(C2CCC(=O)NC2=O)c2ccc([C@H]3CC[C@H](CC(=O)Nc4ccc5c(F)c(N6CC(=O)NS6(=O)=O)c(O)cc5c4)CC3)cc21 (single isomer, unassigned) [Example 179, N-(6-(1,1-dioxido-4-oxo-1,2,5-thiadiazolidin-2-yl)-5-fluoro-7-hydroxynaphthalen-2-yl)-2-((trans)-4-(3-(2,6-dioxopiperidin-3-yl)-1-methyl-1H-indazol-6-yl)cyclohexyl)acetamide] |
| 200 to 1000 | 50 to 200 | Cn1c(=O)n(C2CCC(=O)NC2=O)c2cccc(OC3CCN(CC(=O)NCCOc4ccc5cc(O)c(N6CC(=O)NS6(=O)=O)c(F)c5c4)CC3)c21 (centres unmarked) [Example 9, 2-[4-[1-(2,6-dioxo-3-piperidyl)-3-methyl-2-oxo-benzimidazol-4-yl]oxy-1-piperidyl]-N-[2-[[8-fluoro-6-hydroxy-7-(1,1,4-trioxo-1,2,5-thiadiazolidin-2-yl)-2-naphthyl]oxy]ethyl]acetamide] |
| ≥ 1000 | 50 to 200 | O=C(CN1CCC(c2ccc(NC3CCC(=O)NC3=O)cc2F)CC1)NCCOc1ccc2cc(O)c(N3CC(=O)NS3(=O)=O)c(F)c2c1 (centres unmarked) [Example 10, 2-[4-[4-[(2,6-dioxo-3-piperidyl)amino]-2-fluoro-phenyl]-1-piperidyl]-N-[2-[[8-fluoro-6-hydroxy-7-(1,1,4-trioxo-1,2,5-thiadiazolidin-2-yl)-2-naphthyl]oxy]ethyl]acetamide] |
| 200 to 1000 | 200 to 1000 | O=C(C=Cc1ccc2cc(O)c(N3CC(=O)NS3(=O)=O)c(F)c2c1)NC1CCN(C(=O)COc2cccc3c2CN(C2CCC(=O)NC2=O)C3=O)CC1 (centres unmarked) [Example 11, 3-(7-(1,1-dioxido-4-oxo-1,2,5-thiadiazolidin-2-yl)-8-fluoro-6-hydroxynaphthalen-2-yl)-N-(1-(2-((2-(2,6-dioxopiperidin-3-yl)-1-oxoisoindolin-4-yl)oxy)acetyl)piperidin-4-yl)acrylamide] |
|  | ≥ 1000 | O=C(CCCCCn1cc(CNc2cccc3c2C(=O)N(C2CCC(=O)NC2=O)C3=O)nn1)NCCOc1ccc2cc(O)c(N3CC(=O)NS3(=O)=O)c(Cl)c2c1 (centres unmarked) [Example 49] |
|  | ≥ 1000 | O=C(CCOCCn1cc(CNc2cccc3c2C(=O)N(C2CCC(=O)NC2=O)C3=O)nn1)NCCOc1ccc2cc(O)c(N3CC(=O)NS3(=O)=O)cc2c1 (centres unmarked) [Example 50] |
|  | ≥ 1000 | O=C(CCCCCn1cc(CNc2cccc3c2C(=O)N(C2CCC(=O)NC2=O)C3=O)nn1)NCCOc1ccc2cc(O)c(N3CC(=O)NS3(=O)=O)cc2c1 (centres unmarked) [Example 51] |
